In patent US9598396B2, “Tetrahydrophenanthridinones and tetrahydrocyclopentaquinolinones as PARP and tubulin polymerization inhibitors” (Janssen Pharmaceutica NV, priority 2008, dated 2017):

Key:
tubulin = test: Tubulin polymerization assay; format: biochemical; details: inhibition of polymerization at 20 μM and 5 μM
Method: Example C.5 Polymerization Assay
The tubulin polymerization assay is an adaptation of an assay originally described by Bonne, D. et al. (J. Biol. Chem., 1985, 260:2819-25). The assay kit was purchased from Cytoskeleton, Inc. (catalogue number BK011) and the assay was performed as described by the supplier with the following modifications. The assay was run in a 384-well black Proxiplate (Perkin Elmer) and volumes were adapted accordingly. The reactions were carried out in a final volume of 10 μl. Compounds were added to 25 μl of the reaction mix in 96-well PP plates (Corning) on ice and 10 μl of this mixture was dispensed into duplicates of the 384-well Proxiplates pre-warmed to 37° C. in a Fluoroskan Ascent plate reader (Thermo Scientific). Fluorescence measurements were taken every minute for one hour. The maximum slope of each well was determined (linear regression through 4 consecutive points) and polymerization was calculated as a percentage of polymerization observed in the absence of compound.

[1] = tested on: Human colon carcinoma HCT116 cells; test: Detection of antiproliferative activity (Alamar Blue assay); format: cell-based; details: HCT-116, 96 h, 4-day incubation, read-out: Cellular assay HCT116 pIC50 (converted)
Method: Example C.4 Detection of Antiproliferative Activity
Human colon carcinoma HCT116 cells obtained from the ATCC were cultured in McCoy's 5A medium supplemented with 2 mM L-Glutamine, 50 μg/ml gentamicin and 10% heat inactivated fetal calf serum.
Reagents used in the Alamar Blue Assay
Resazurin was purchased from Aldrich (Prod. No. 199303). Potassium ferrocyanide, potassium ferricyanide, KH2PO4 and K2HPO4 were purchased from Sigma (Prod. Nos. P9387, P8131, P5655 and P8281, respectively).
Potassium Phosphate Buffer 0.1 M (PPB) was made as follows: 2.72 gram KH2PO4 and 13.86 gram K2HPO4 were dissolved in 500 ml milli-Q H2O, the pH was adjusted to pH 7.4 and the volume was brought to 1 liter with milli-Q H2O; the buffer was filter sterilised and stored at room temperature. Resazurin stock solution (PPB-A) was prepared fresh by dissolving 45 mg resazurin in 15 ml PBS. 30 mM potassium ferricyanide (PPB-B) was prepared by dissolving 0.987 gram potassium ferricyanide in 100 ml PPB. 30 mM potassium ferrocyanide (PPB-C) was prepared by dissolving 1.266 gram potassium ferrocyanide in 100 ml PPB.
Mixture of PPB-A, PPB-B and PPB-C was prepared by mixing equal volumes of the respective solutions. Resazurin work solution (herein termed “Alamar Blue” solution) was prepared by diluting said mixture 20× (vol/vol) in PPB and filter sterilising; the Alamar Blue solution could be kept at 4° C. for a maximum of 2 weeks.
Procedure of the Alamar Blue Assay
For experiments in 384 wells plates the cells were seeded at a density of 4.5×10^3 cells/ml in Falcon 384-well culture plates (Life Technologies, Merelbeke, Belgium), black with clear bottom, in 45 μl culture medium. Cells were allowed to adhere to plastic for 24 hours. The tested compound was pre-diluted (1/50 in culture medium) and 5 μl pre-diluted compound was added to the wells. Following 4-day incubation, 10 μl of the Alamar Blue solution was added to each well and the cells were further incubated for 4 hours (HCT116) or 24 hours (PC-3) at 37° C. The fluorescence intensity was measured for each well on a Fluorescence plate reader (Fluorskan, Labsystems, 540 nm excitation and 590 nm emission)
The antiproliferative activity was calculated as percentage of remaining viable cells in treated versus control (untreated cells) conditions. Within an experiment, the result for each experimental condition is the mean of 3 replicate wells. When appropriate, the experiments were repeated to establish full concentration-response curves. […] Herein the effects of tested compounds are expressed as pIC50 (the negative log value of the IC50 value) (see Table 3).

[2] = tested on: human prostate cancer PC3 cells; test: Eb1 Comet (microtubule disruption) assay; format: cell-based; details: 1 hour treatment, LAC = concentration where Eb1 foci absent in at least 50% of treated cells
Description: Example C.6 Eb1 Comet (Microtubule Disruption) Assay
The Eb1 Comet assay relies on the detection of the Eb1 protein at the plus end of polymerizing microtubules (Mimori-Kiyosue, 2000) using indirect immunofluorescence. Disruption of microtubule dynamics through de-polymerization or stabilization results in a de-localization of Eb1 from the growing microtubule ends and this is visualized by the disappearance of Eb1 containing cytoplasmic foci.
Briefly, human prostate cancer PC3 cells obtained from the American Type Culture Collection were grown in 96-well plates (Greiner, cat. no. 655090) in HAM's F12 medium as recommended by the provider (ATCC). The cells were treated for 1 hour at 37° C. with compounds dissolved in DMSO (0.6% final DMSO concentration). The culture medium was then removed by aspiration and the cells were fixed by adding cold methanol (−20 C). After a 15 minutes incubation at −20° C., the cells were washed twice with DPBS (Gibco) containing 0.5% Triton X-100. Mouse Eb1 antibody (BD Transduction Laboratories, cat. no. 610534) was added to the cells (1/250 dilution in DPBS containing 1% BSA) and incubated overnight at room temperature. The antibody was subsequently removed and the cells washed twice with DPBS, 0.5% Triton X-100. Secondary goat anti-mouse antibody conjugated to Alexa 488 fluorescent dye (Molecular Probes) was added at a 1/500 dilution in DPBS, 1% BSA and incubated for 1 hour at 37° C. The cells were washed twice with DPBS, 0.5% Triton X-100 and then DPBS containing 0.5% Triton X-100 and 1/5000 Hoechst 33342 (Molecular Probes) was added. Microscopy based Eb1 foci visualization was carried out using an IN Cell Analyser 1000 (Amersham Biosciences) using a 20× objective. Compound dependent microtubule disruption was visually determined by the disappearance in Eb1 foci. The lowest active concentration (LAC) was determined as the concentration where Eb1 foci were absent in at least 50% of the treated cells. Herein the effects of tested compounds are expressed as pLAC (the negative log value of the LAC value) (see Table 3).

TANK-2 enzyme = TANK-2 enzyme (Homo sapiens (Human), UniProt Q9H2K2); test: In vitro Scintillation Proximity Assay (SPA) for TANK-2 inhibitory activity; format: biochemical; details: auto-poly(ADP-ribosyl)ation, [3H]-NAD+, Ni flash plates (96 or 384 well)
Sequence of TANK-2 enzyme (Q9H2K2 whole entry): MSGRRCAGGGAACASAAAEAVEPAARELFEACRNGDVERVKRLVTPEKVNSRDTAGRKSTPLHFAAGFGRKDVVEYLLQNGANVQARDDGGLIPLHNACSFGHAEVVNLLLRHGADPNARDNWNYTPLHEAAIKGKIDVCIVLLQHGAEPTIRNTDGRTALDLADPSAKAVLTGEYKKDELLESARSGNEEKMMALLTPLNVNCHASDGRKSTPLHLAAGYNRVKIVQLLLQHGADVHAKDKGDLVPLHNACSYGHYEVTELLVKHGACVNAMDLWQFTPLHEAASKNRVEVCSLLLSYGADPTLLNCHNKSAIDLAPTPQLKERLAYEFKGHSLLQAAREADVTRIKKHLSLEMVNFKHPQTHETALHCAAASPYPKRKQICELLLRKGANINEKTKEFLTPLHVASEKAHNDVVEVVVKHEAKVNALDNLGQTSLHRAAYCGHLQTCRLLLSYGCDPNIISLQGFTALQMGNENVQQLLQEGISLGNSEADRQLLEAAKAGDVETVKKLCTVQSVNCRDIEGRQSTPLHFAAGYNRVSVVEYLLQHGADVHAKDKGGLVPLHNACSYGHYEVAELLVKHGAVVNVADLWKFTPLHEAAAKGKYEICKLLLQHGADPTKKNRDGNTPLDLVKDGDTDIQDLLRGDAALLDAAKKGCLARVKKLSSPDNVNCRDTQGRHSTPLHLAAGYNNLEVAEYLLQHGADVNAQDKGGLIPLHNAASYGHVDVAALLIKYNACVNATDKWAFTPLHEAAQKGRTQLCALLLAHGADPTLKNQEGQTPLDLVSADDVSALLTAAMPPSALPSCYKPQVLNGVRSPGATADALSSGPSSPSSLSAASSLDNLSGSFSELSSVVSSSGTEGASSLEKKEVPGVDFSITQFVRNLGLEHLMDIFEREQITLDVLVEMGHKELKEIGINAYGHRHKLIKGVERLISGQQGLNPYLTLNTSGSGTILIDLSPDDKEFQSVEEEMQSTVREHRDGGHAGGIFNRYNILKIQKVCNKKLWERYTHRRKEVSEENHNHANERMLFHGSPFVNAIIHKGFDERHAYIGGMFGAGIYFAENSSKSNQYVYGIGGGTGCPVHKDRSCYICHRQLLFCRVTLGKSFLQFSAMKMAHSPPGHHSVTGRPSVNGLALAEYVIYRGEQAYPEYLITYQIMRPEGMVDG
Method: C.2.In Vitro Scintillation Proximity Assay (SPA) for TANK-2 Inhibitory Activity
Compounds of the present invention were tested in an in vitro assay based on SPA technology with Ni Flash plates (96 or 384 well).
In principle, the assay relies upon SPA technology for the detection of auto-poly(ADP-ribosyl)ation of TANK-2 protein using [^3H]-nicotinamide adenine dinucleotide ([^3H]-NAD^+) as ADP-ribosyl donor.
A stock solution of 100 nM [^3H]-NAD^+/NAD (0.1 mCi/ml, supplier: Perkin Elmer) and 25 μM NAD (Sigma) was made in assay buffer (60 mM Tris/HCl, pH 7.4; 0.9 mM DTT; 6 mM MgCl2). The TANK-2 enzyme was produced as described in EP1238063. 60 μl of assay buffer, together with 1 μl of compound in DMSO, 20 μl of [^3H]-NAD^+/NAD and 20 μl of TANK-2 enzyme (final concentration 8 μg/ml) was added per well into a 96-well Ni-coated flash plate (Perkin Elmer). After incubation of the mixture for 120 minutes at room temperature, the reaction was terminated by adding 60 μl of stopsolution (42.6 mg NAD in 6 ml H2O). The plates were covered with a plate sealer and placed in a TopCountNXT™ (Packard) for scintillation counting. Values were expressed as counts per minute (cpm). For each experiment, controls (containing TANK-2 enzyme and DMSO without compound), a blank incubation (containing DMSO but no TANK-2 enzyme or compound) and samples (containing TANK-2 enzyme and compound dissolved in DMSO) were run in parallel. All compounds tested were dissolved and eventually further diluted in DMSO. In first instance, compounds were tested at a concentration of 10^−5M. […] In each test, the blank value was subtracted from both the control and the sample values. The control sample represented maximal TANK-2 enzyme activity. For each sample, the amount of cpm was expressed as a percentage of the mean cpm value of the controls. […] Herein the effects of test compounds are expressed as pIC50 (the negative log value of the IC50-value). As reference compounds, 3-aminobenzamide and 4-amino-1,8-naphtalimide were included to validate the SPA assay. Herein the assay was described using 96-well plates. In the assay using 384-well plates the same final concentrations were used and volumes were adapted.

## COc1cc(OC)nc(CC(C)(C#N)c2ccc3c4c(c(=O)[nH]c3c2)CCCC4)n1 (stereo not shown) [Co. No. 6]
tubulin
  Assay Tubulin Polymerization score: 3 (a compound showing more than 50% inhibition at 5 μM is reported as score 3)
[1]
  IC50: 0.0575 µM
[2]
  Cellular assay Eb1 pLAC: 8
TANK-2 enzyme
  in vitro SPA assay TANK-2 pIC50: 7.72
